# Data: patent US3982931A, “N,N-di-sec.butyl-benzamide herbicides” (priority 1967, dated 1976)
# Assays:
# avena sativa (oats) = experiment: activity on agrarian species, soil treatment one day after sowing; format: in vivo, Avena sativa L.
# rice = experiment: Example 2 basin test, rice-field soil, granular composition; format: in vivo; conditions: 4 - 6 - 8 kg/ha
# Experimental: (§1) Into 2 sq.m. basins containing rice-field soil were sown rice and Echinocloa crus-galli. After having submerged the soil with 10 cm of water, treatments were carried out by distributing uniformly on the soil a granular composition containing 5% of PA 300 and 95% of bentonite in doses equal to 0 - 4 - 6 - 8 kg of active principle per hectar.
# Echinocloa crus-galli = experiment: as above; format: in vivo; conditions: 4 - 6 - 8 kg/ha
# Experimental: as §1
# [1] = tested on: phaseolus vulgaris (bean); experiment: activity on agrarian species, soil treatment one day after sowing; format: in vivo, Phaseolus vulgaris L.
# How it was run: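 Product applied to soil one day after sowing at 1, 3, 6, 8, 10, 12 and 14 kg/ha. Effect on bean plants scored against control on a 0–4 scale, 4 meaning no germination or total containment at emergence; intermediate activity recorded with both values.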
# zea mais L. (corn) = experiment: as above; format: in vivo
# How it was run: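 Pre-emergence soil application one day after sowing at 1, 3, 6, 8, 10, 12 and 14 kg/ha. Crop damage scored visually against untreated control on a 0–4 scale (0 = no effect, 4 = no germination or total containment at emergence); intermediate effects recorded with both scores.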
# setaria glauca L. = experiment: herbicidal activity, soil treatment one day after sowing; format: in vivo
# [2] = tested on: amaranthus retroflexus L.; experiment: as above; format: in vivo
# oryza sativa L. (rice) = experiment: activity on agrarian species, soil treatment one day after sowing; format: in vivo
# How it was run: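 Pre-emergence soil treatment of rice applied one day after sowing at 1, 3, 6, 8, 10, 12 and 14 kg/ha. Crop injury scored against untreated control on a 0–4 scale, 4 being no germination or total containment at emergence; intermediate activity recorded as both adjacent classes.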
# pisum sativum L. (pea) = experiment: as above; format: in vivo
# chenopodium album L. = experiment: herbicidal activity, soil treatment one day after sowing; format: in vivo
# [3] = tested on: echinocloa crus-galli R.S.; experiment: as above; format: in vivo
# vicia sativa L. = experiment: as above; format: in vivo
# How it was run: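 Pre-emergence soil treatment one day after sowing; activity scored visually on a […] scale against untreated control, from slight difference (1) to no germination or total containment at emergence (4); intermediate activity recorded as both classes, preeminent value first.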
# [4] = tested on: triticum vulgare L. (wheat); experiment: activity on agrarian species, soil treatment one day after sowing; format: in vivo
# How it was run: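 Pre-emergence soil treatment one day after sowing of wheat, product applied at 1, 3, 6, 8, 10, 12 and 14 kg/ha. Activity scored visually on a 0–4 scale relative to untreated control (0 = none, 4 = no germination/total containment); intermediate activity recorded as both values.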
# artemisia vulgaris L. = experiment: herbicidal activity, soil treatment one day after sowing; format: in vivo
# [5] = toxicity towards warm-blooded animals, LD 50 per os on rat; conditions: in vivo, po
structure (smiles),measurement,setting,value
"CCC(C)N(C(=O)c1cc(Cl)cc(Cl)c1Cl)C(C)CC (stereo not drawn) [PA300, 2,3,5-trichloro-N,N-di-sec.butyl-benzamide]","activity on G, 0-4 scale",avena sativa (oats); 3 kg/ha,0
same,"activity on G, 0-4 scale",avena sativa (oats); 6 kg/ha,1
same,development of rice,rice,the rice developed regularly
same,development of Echinocloa crus-galli plants,Echinocloa crus-galli,no Echinocloa crus-galli plant developed
same,"activity on I, 0-4 scale",[1]; 3 kg/ha,0
same,"activity on I, 0-4 scale",[1]; 6 kg/ha,0
same,"activity on O, 0-4 scale",zea mais L. (corn); 3 kg/ha,0
same,"activity on O, 0-4 scale",zea mais L. (corn); 6 kg/ha,0
same,"activity on E, 0-4 scale",setaria glauca L.; 1 kg/ha,3-4
same,"activity on E, 0-4 scale",setaria glauca L.; 2 kg/ha,4-3
same,"activity on E, 0-4 scale",setaria glauca L.; 4 kg/ha,4
same,"activity on E, 0-4 scale",setaria glauca L.; 6 kg/ha,4
same,"activity on A, 0-4 scale",[2]; 1 kg/ha,0-1
same,"activity on A, 0-4 scale",[2]; 2 kg/ha,1
same,"activity on A, 0-4 scale",[2]; 4 kg/ha,1
same,"activity on A, 0-4 scale",[2]; 6 kg/ha,1
same,"activity on P, 0-4 scale",oryza sativa L. (rice); 3 kg/ha,0
same,"activity on P, 0-4 scale",oryza sativa L. (rice); 6 kg/ha,0
same,"activity on L, 0-4 scale",pisum sativum L. (pea); 3 kg/ha,0
same,"activity on L, 0-4 scale",pisum sativum L. (pea); 6 kg/ha,0
same,"activity on C, 0-4 scale",chenopodium album L.; 1 kg/ha,0-1
same,"activity on C, 0-4 scale",chenopodium album L.; 2 kg/ha,1
same,"activity on C, 0-4 scale",chenopodium album L.; 4 kg/ha,1-2
same,"activity on C, 0-4 scale",chenopodium album L.; 6 kg/ha,1-2
same,"activity on D, 0-4 scale",[3]; 1 kg/ha,3
same,"activity on D, 0-4 scale",[3]; 2 kg/ha,3-4
same,"activity on D, 0-4 scale",[3]; 4 kg/ha,4-3
same,"activity on D, 0-4 scale",[3]; 6 kg/ha,4
same,"activity on F, 0-4 scale",vicia sativa L.; 1 kg/ha,0
same,"activity on F, 0-4 scale",vicia sativa L.; 2 kg/ha,0
same,"activity on F, 0-4 scale",vicia sativa L.; 4 kg/ha,0
same,"activity on F, 0-4 scale",vicia sativa L.; 6 kg/ha,0
same,"activity on N, 0-4 scale",[4]; 3 kg/ha,0
same,"activity on N, 0-4 scale",[4]; 6 kg/ha,0
same,"activity on B, 0-4 scale",artemisia vulgaris L.; 1 kg/ha,0-1
same,"activity on B, 0-4 scale",artemisia vulgaris L.; 2 kg/ha,1-0
same,"activity on B, 0-4 scale",artemisia vulgaris L.; 4 kg/ha,1
same,"activity on B, 0-4 scale",artemisia vulgaris L.; 6 kg/ha,1
"CCC(C)N(CC)C(=O)c1ccc(Cl)c(Cl)c1 (stereo not drawn) [PA631, 3,4-dichloro-N-ethyl,N-sec.butyl-benzamide]",LD50,[5],930 mg/kg
same,"activity on E, 0-4 scale",setaria glauca L.; 6 kg/ha,3
same,"activity on A, 0-4 scale",[2]; 6 kg/ha,2
same,"activity on C, 0-4 scale",chenopodium album L.; 6 kg/ha,3
same,"activity on D, 0-4 scale",[3]; 6 kg/ha,3
same,"activity on F, 0-4 scale",vicia sativa L.; 6 kg/ha,0-1
same,"activity on B, 0-4 scale",artemisia vulgaris L.; 6 kg/ha,2
